Experimental data as given in US20110071204A1, “PERCUTANEOUS ABSORPTION PREPARATION” (KYORIN PHARMACEUTICAL CO., LTD., priority 2005, published 2011).

Experiments:
[1] = test system: airway contraction induced by methacholine; test: Airway contraction measuring method (Konzett & Rossler), methacholine-induced; type: in vivo; details: guinea pig
Method: Male Std:Hartley guinea pigs (Japan SLC Inc., week of age at the time of use: 6 weeks of age, from 340.6 to 488.0 g in body weight) were anesthetized with urethane, and a canula was inserted into the trachea. The trachea canula was connected to a quantitative artificial ventilator, and under artificial respiration, a catheter was indwelled in the left jugular vein. Measurement of the airway contraction was carried out by the Konzett & Rossler method. Guinea pigs were subjected to artificial respiration at a ventilation of 4 ml/animal and a ventilation frequency of 70 times/minute. Changes in the ventilation pressure were measured by a transducer (UGO BASILE, BRONCHOSPASM TRANSDUCER 7020) connected to the sub-bypass of the trachea canula. By inserting a catheter into the jugular vein, imidafenacin was administered by continuous intravenous infusion (100 μl/kg/min). After 75 minutes of the start of administration of the agent liquid, methacholine (10 μg/kg) was intravenously administered to induce airway contraction. The airway contraction inhibitory activity was evaluated using peak height of the airway contraction induced by methacholine as the index.
In this connection, the blood concentration measurement was carried out by LC/MS/MS using blood plasma.

[2] = test system: bladder contraction induced by methacholine; type: in vivo; details: guinea pig
Excerpt: Male Std:Hartley guinea pigs (Japan SLC Inc., week of age at the time of use: 6 weeks of age, from 340.6 to 488.0 g in body weight) were anesthetized with urethane. The abdominal region was subjected to median incision, and then both sides of ureters were ligated in order to prevent inflow of urine from the kidney to the bladder. After ligation of the bladder cervix, a catheter for intravesical pressure measurement use was inserted from the bladder apex and fixed by ligation. Thereafter, in order to measure intravesical pressure, 1 ml of physiological saline was injected into the bladder. Next, a catheter was indwelled in the left jugular vein. The intravesical pressure was measured via an amplifier for strain pressure use (Nihon Kohden Corporation, CARRIER ANPLIFIER AP-601G) by connecting the catheter for intravesical pressure measuring use to a pressure transducer (Nihon Kohden Corporation, LIFE KIT DX-100). By inserting a catheter into the jugular vein, imidafenacin was administered by continuous intravenous infusion (100 μl/kg/min). After 75 minutes of the commencement of administration of the agent liquid, methacholine (10 μg/kg) was intravenously administered to induce bladder contraction. The bladder contraction inhibitory activity was evaluated using peak height of the bladder contraction induced by methacholine as the index. […]

[3] = continuous intravenous infusion, methacholine 10 μg/kg after 75 minutes

With `Cc1nccn1CCC(C(N)=O)(c1ccccc1)c1ccccc1` [imidafenacin, 4-(2-methyl-1-imidazolyl)-2,2-diphenylbutylamide] the “ID50, airway contraction inhibitory activity” value [1, 3] was 0.061 µg/kg/min, the “blood concentration at around the ID50 value (airway contraction)” value ([1]; plasma, LC/MS/MS) was “about 1 ng/ml” and the “ID50, bladder contraction inhibitory activity” value [2, 3] was 0.064 µg/kg/min. The “blood concentration at around the ID50 value (intravesical pressure)” value ([2]; male, Hartley, in vivo) was “about 1 ng/ml”.
